Test results reported in ChEMBL document CHEMBL5291721, “A preclinical secondary pharmacology resource illuminates target-adverse drug reaction associations of marketed drugs” (Nat Commun, 2023).

Legend:
[1] = molecular target: T1, Type-1 angiotensin II receptor (Homo sapiens, UniProt P30556)
T1 sequence (P30556 whole entry): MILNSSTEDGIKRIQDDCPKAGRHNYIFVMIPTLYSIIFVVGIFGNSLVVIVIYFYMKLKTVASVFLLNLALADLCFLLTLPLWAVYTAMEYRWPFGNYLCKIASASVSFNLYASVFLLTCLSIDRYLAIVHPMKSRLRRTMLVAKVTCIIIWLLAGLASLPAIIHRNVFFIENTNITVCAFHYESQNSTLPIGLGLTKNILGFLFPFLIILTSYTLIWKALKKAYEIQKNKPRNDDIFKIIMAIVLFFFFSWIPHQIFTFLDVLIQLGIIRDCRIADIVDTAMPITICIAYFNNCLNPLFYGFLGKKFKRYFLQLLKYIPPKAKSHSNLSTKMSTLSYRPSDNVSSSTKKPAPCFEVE

[2] = molecular target: T2, Amine oxidase [flavin-containing] A (Homo sapiens, UniProt P21397); assay type: functional
T2 sequence (P21397 whole entry): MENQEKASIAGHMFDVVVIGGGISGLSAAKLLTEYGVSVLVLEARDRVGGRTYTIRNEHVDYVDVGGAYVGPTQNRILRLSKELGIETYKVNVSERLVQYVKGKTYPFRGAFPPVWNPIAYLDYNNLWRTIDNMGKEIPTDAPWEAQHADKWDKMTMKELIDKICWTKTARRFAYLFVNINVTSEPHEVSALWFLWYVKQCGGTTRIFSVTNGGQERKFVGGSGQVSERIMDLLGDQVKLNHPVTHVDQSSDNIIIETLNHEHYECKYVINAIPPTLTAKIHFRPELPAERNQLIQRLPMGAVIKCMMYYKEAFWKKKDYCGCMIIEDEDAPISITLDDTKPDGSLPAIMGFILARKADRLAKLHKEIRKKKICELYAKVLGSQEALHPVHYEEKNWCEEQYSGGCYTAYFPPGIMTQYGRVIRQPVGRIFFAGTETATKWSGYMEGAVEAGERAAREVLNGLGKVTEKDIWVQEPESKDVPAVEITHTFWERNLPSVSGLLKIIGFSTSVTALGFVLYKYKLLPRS

[3] = molecular target: Mu-type opioid receptor (Homo sapiens, UniProt P35372)
[4] = molecular target: Cannabinoid receptor 1 (Homo sapiens, UniProt P21554)
[5] = molecular target: 3',5'-cyclic-AMP phosphodiesterase 4D (Homo sapiens, UniProt Q08499); assay type: functional
[6] = molecular target: T3, B2 bradykinin receptor (Homo sapiens, UniProt P30411)
T3 sequence (P30411 whole entry): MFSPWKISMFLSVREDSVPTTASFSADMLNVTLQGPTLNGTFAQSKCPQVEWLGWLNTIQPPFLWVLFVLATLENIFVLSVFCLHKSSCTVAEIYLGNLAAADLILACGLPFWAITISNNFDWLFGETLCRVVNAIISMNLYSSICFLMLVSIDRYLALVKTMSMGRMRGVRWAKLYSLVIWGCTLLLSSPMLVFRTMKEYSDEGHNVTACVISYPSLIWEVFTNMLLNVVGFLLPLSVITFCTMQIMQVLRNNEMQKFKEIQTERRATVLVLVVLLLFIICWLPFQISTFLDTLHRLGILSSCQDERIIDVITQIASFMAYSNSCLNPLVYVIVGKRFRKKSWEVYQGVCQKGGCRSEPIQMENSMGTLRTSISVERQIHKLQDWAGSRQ

[7] = molecular target: Sodium-dependent dopamine transporter (Homo sapiens, UniProt Q01959)
[8] = molecular target: Muscarinic acetylcholine receptor M3 (Homo sapiens, UniProt P20309)
[9] = molecular target: T4, Glucocorticoid receptor (Homo sapiens, UniProt P04150)
T4 sequence (P04150 whole entry): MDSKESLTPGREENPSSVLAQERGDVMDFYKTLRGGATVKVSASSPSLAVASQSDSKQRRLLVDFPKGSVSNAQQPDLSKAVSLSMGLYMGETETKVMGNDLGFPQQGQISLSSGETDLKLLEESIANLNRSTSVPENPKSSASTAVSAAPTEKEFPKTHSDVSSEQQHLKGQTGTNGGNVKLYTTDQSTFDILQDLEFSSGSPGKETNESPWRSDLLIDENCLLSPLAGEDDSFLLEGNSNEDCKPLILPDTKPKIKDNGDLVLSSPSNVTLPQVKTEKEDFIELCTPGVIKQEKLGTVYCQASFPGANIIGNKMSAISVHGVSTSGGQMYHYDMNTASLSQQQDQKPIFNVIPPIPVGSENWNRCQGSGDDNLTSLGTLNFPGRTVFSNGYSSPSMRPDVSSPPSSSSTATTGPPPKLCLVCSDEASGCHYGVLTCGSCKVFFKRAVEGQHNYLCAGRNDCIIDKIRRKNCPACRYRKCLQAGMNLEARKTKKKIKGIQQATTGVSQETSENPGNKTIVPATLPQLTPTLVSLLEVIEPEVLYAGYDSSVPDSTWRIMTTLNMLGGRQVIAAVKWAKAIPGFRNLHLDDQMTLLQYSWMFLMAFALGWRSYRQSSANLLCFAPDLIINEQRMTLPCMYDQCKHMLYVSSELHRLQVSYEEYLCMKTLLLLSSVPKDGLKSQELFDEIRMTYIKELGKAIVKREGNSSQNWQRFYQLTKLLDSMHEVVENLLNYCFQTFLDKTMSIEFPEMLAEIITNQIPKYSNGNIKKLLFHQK

[10] = molecular target: Histamine H1 receptor (Homo sapiens, UniProt P35367)
[11] = molecular target: T5, 5-hydroxytryptamine receptor 2A (Homo sapiens, UniProt P28223); assay type: functional, cell-based
[12] = molecular target: T5, 5-hydroxytryptamine receptor 2A; assay type: functional, cell-based; remark: listed apart in the source
Also: assay procedure not described here.

Sequence of Sodium-dependent dopamine transporter (Q01959 whole entry): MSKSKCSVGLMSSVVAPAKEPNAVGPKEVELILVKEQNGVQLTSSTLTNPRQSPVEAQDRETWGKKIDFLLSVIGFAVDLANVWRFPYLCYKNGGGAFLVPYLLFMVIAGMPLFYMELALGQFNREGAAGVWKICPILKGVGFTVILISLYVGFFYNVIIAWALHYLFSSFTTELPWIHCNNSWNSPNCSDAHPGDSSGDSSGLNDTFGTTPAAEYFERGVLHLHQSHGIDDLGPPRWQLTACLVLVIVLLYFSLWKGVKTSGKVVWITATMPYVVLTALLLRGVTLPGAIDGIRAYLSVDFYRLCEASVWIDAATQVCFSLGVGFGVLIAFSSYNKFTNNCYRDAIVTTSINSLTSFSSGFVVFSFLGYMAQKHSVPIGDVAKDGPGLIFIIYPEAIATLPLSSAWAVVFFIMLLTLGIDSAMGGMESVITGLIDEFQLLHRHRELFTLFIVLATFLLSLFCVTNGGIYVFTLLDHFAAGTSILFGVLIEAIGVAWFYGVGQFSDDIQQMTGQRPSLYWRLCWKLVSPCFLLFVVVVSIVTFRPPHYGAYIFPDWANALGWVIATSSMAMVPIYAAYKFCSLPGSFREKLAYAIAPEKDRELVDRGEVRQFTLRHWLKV
Sequence of Muscarinic acetylcholine receptor M3 (P20309 whole entry): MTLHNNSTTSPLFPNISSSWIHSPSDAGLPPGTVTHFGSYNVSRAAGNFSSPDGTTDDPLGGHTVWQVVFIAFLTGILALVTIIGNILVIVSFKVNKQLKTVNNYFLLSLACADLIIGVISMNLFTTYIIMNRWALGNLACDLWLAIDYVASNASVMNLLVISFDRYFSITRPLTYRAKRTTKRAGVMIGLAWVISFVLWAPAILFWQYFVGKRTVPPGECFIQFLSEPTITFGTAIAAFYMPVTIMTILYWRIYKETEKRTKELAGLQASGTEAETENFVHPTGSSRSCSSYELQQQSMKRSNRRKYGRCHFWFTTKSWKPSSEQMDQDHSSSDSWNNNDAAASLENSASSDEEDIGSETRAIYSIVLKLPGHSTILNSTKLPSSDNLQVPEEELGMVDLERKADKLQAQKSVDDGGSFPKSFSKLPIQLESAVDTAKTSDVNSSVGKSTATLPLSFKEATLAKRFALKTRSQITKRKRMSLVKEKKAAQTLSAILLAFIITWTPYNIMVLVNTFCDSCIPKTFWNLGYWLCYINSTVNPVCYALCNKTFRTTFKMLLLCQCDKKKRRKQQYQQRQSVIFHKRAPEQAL
Sequence of Histamine H1 receptor (P35367 whole entry): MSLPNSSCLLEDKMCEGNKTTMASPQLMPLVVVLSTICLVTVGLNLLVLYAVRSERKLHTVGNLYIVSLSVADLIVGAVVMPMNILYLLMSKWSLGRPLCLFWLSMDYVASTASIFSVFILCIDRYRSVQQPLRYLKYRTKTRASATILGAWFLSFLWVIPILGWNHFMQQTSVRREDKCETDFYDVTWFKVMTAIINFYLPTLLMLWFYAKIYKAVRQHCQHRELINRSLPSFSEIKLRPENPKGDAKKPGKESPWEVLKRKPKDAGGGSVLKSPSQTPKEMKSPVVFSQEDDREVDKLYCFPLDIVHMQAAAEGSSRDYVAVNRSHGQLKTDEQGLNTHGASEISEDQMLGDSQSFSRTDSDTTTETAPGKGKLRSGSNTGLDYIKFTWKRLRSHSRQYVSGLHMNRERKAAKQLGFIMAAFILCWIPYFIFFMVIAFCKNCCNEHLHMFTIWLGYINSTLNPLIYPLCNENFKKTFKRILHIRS
Sequence of Cannabinoid receptor 1 (P21554 whole entry): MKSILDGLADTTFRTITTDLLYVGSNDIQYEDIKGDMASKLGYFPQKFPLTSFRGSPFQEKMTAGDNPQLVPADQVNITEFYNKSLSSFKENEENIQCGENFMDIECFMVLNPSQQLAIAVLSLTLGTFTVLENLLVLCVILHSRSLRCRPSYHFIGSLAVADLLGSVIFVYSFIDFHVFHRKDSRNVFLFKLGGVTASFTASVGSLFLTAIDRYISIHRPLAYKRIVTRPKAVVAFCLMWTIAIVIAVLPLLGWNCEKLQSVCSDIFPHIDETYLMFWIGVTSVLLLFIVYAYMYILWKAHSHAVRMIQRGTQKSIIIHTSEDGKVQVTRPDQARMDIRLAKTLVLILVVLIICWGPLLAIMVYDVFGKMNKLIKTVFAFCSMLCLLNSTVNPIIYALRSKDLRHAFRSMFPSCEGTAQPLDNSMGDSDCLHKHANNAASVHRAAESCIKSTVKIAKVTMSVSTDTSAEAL
Sequence of 3',5'-cyclic-AMP phosphodiesterase 4D (Q08499 whole entry): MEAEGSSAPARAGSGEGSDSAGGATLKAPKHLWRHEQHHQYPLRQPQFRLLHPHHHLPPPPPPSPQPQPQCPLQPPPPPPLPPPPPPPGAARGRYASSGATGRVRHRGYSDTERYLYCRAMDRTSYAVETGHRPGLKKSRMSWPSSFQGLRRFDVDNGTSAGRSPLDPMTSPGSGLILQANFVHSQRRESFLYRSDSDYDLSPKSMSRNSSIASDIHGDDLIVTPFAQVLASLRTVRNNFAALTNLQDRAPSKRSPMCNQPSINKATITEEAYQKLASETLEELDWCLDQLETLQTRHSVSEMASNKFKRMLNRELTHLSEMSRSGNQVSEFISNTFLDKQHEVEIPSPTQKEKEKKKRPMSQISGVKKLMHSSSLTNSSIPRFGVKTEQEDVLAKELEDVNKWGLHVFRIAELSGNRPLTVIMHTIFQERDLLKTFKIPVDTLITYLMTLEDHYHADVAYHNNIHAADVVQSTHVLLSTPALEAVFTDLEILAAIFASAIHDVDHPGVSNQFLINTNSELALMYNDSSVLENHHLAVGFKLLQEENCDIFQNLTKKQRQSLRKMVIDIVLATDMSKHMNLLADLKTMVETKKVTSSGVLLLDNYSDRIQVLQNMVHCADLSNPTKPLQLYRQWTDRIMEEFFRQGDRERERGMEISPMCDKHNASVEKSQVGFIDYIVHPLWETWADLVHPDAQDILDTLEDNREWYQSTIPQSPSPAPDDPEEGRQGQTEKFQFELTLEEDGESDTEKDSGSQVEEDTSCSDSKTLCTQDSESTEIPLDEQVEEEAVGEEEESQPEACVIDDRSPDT
Sequence of Mu-type opioid receptor (P35372 whole entry): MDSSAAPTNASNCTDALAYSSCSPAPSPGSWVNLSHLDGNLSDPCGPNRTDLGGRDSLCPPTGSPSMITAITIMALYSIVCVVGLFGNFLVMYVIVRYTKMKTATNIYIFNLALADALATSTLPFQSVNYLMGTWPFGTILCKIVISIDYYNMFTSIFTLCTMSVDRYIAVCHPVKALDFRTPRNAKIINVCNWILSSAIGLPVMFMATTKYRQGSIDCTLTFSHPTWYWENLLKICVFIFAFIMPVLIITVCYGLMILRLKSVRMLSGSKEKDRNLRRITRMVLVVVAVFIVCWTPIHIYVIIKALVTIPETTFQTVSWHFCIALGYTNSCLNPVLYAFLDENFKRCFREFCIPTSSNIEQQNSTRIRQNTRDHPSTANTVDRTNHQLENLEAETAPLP
T5 sequence (P28223 whole entry): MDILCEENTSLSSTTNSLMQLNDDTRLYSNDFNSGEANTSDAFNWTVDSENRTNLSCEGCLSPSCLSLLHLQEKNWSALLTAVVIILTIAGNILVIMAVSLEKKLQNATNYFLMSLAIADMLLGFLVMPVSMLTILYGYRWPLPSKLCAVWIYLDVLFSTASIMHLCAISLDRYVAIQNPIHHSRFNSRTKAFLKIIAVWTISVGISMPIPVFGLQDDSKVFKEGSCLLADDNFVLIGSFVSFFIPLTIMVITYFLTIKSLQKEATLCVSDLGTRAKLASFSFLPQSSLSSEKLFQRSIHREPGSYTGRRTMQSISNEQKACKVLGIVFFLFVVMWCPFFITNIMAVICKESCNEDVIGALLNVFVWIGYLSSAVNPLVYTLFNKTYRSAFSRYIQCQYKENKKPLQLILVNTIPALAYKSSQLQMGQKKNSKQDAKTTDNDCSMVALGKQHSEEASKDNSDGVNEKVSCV

SMILES: CC1CC(OC(=O)C(O)c2ccccc2)CC(C)(C)C1 (stereo not drawn) [CYCLANDELATE]
- AC50 [1]: > 10 µM
- AC50 [2]: > 10 µM
- AC50 [3]: > 30 µM
- AC50 [4]: > 10 µM
- AC50 [5]: > 30 µM
- AC50 [6]: > 10 µM
- AC50 [7]: > 30 µM

SMILES: OCC(O)COc1ccc(Cl)cc1 (stereo not drawn)
- AC50 [1]: > 10 µM
- AC50 [8]: > 30 µM
- AC50 [9]: > 10 µM
- AC50 [2]: > 10 µM
- AC50 [3]: > 30 µM
- AC50 [10]: > 10 µM
- AC50 [4]: > 10 µM
- AC50 [5]: > 30 µM
- AC50 [6]: > 10 µM
- AC50 [11]: > 10 µM
- AC50 [12]: > 10 µM
- AC50 [7]: > 10 µM

SMILES: CN(Cc1ccc(C(C)(C)C)cc1)Cc1cccc2ccccc12 [BUTENAFINE]
- AC50 [1]: > 10 µM
- AC50 [9]: > 30 µM
- AC50 [2]: > 10 µM
- AC50 [3]: > 30 µM
- AC50 [4]: > 10 µM
- AC50 [5]: > 30 µM
- AC50 [6]: > 10 µM
- AC50 [7]: > 10 µM

SMILES: CCOC(=O)C1=C(C)NC(C)=C(C(=O)OC)C1c1cccc(Cl)c1Cl (stereo not drawn) [FELODIPINE]
- AC50 [1]: 55.3 µM
- AC50 [9]: 9.94 µM
- AC50 [2]: > 10 µM
- AC50 [3]: > 10 µM
- AC50 [4]: 13.4 µM
- AC50 [5]: 3.2 µM
- AC50 [6]: > 30 µM
- AC50 [7]: 13.3 µM

SMILES: Nc1ccc(S(=O)(=O)Nc2ncccn2)cc1 [SULFADIAZINE]
- AC50 [1]: > 10 µM
- AC50 [2]: > 10 µM
- AC50 [3]: > 30 µM
- AC50 [4]: > 10 µM
- AC50 [5]: > 30 µM
- AC50 [6]: > 10 µM
- AC50 [7]: > 10 µM

SMILES: CC(C)CN(C[C@@H](O)[C@H](Cc1ccccc1)NC(=O)O[C@H]1CCOC1)S(=O)(=O)c1ccc(N)cc1
- AC50 [1]: > 10 µM
- AC50 [9]: > 10 µM
- AC50 [2]: > 10 µM
- AC50 [3]: > 30 µM
- AC50 [4]: 11.4 µM
- AC50 [5]: > 30 µM
- AC50 [6]: > 30 µM
- AC50 [7]: > 10 µM

SMILES: Cc1cnc(Nc2ccc(OCCN3CCCC3)cc2)nc1Nc1cccc(S(=O)(=O)NC(C)(C)C)c1 [FEDRATINIB]
- AC50 [1]: > 30 µM
- AC50 [8]: 5.7 µM
- AC50 [9]: > 30 µM
- AC50 [2]: > 10 µM
- AC50 [3]: 17 µM
- AC50 [10]: > 10 µM
- AC50 [4]: > 10 µM
- AC50 [5]: 0.22 µM
- AC50 [6]: > 30 µM
- AC50 [7]: 0.08 µM

SMILES: CCN(C(C)=O)c1cccc(-c2ccnc3c(C#N)cnn23)c1 [ZALEPLON]
- AC50 [1]: > 30 µM
- AC50 [2]: > 10 µM
- AC50 [3]: > 30 µM
- AC50 [5]: > 30 µM
- AC50 [6]: > 30 µM
- AC50 [7]: > 30 µM

SMILES: CCN(CC)CC(=O)Nc1c(C)cccc1C [LIDOCAINE]
- AC50 [1]: > 10 µM
- AC50 [9]: > 30 µM
- AC50 [5]: > 10 µM
- AC50 [6]: > 30 µM

SMILES: CN1C(=O)CN=C(c2ccccc2F)c2cc([N+](=O)[O-])ccc21 [FLUNITRAZEPAM]
- AC50 [1]: > 30 µM
- AC50 [8]: > 30 µM
- AC50 [9]: > 30 µM
- AC50 [2]: > 10 µM
- AC50 [3]: > 10 µM
- AC50 [10]: > 10 µM
- AC50 [4]: > 10 µM
- AC50 [5]: > 30 µM
- AC50 [6]: > 30 µM
- AC50 [7]: > 10 µM

SMILES: CC(=O)[C@@]1(O)CC[C@H]2[C@@H]3C[C@H](C)C4=CC(=O)C=C[C@]4(C)[C@@]3(F)[C@@H](O)C[C@@]21C [FLUOROMETHOLONE]
- AC50 [1]: > 10 µM
- AC50 [9]: 0.004 µM
- AC50 [2]: > 10 µM
- AC50 [3]: > 30 µM
- AC50 [4]: > 10 µM
- AC50 [5]: > 30 µM
- AC50 [6]: > 10 µM
- AC50 [7]: > 10 µM
